One assay deals with HEK293/Null. The assay is described as follows: Antagonist screening on RIG-I−/MDA-5− control cell line stimulated with hIFNα. Format: cell-based. Conditions: stimulated with recombinant hIFNα at 100 IU/mL. How it is done:
RIG-I and MDA-5 stimulation were tested by assessing IRF3 activation in HEK293 cells expressing human RIG-I or MDA-5 genes. The activity of the test articles was tested on human RIG-I and MDA-5 expressing cells as a potential agonist or antagonist. The test articles were evaluated at one concentration and compared to control ligands. This step was performed in triplicate. The results are provided as Relative Luminescence Units (RLUs).
RIG-I^−/MDA-5^− Cell Lines: HEK293/Null: Control for human RIG-I and MDA-5 Poly(I:C)HMW/LyoVec at 1 μg/mL. Antagonist: 500 ng/mL 5′ppp-dsRNA/LyoVec at 1 μg/mL. Antagonist: 500 ng/mL hIFNα at 1000 IU/mL. Antagonist: 100 IU/mL.
In a 96-well plate (200 μL total volume) containing the appropriate cells (25,000-50,000 cells/well), 20 μL of the test article or of the positive control ligand was added to the wells. For the antagonist assay, the test article was incubated with the cells, at 37° C. with 5% CO2, for 30 minutes prior to the addition of the positive control ligand to the wells. After 20 hour incubation, activation of the IRF pathway was monitored using a luciferase detection assay. Luciferase activity was assayed in triplicate from the supernatant of the induced cells, and the relative luminescence units (RLUs) are detected by a Promega GloMax Luminometer.

The subject of assay [1] is spinal microglia (Iba1) in the dorsal horn of the spinal cord. The assay is described as follows: Spinal microglial activation (Iba1 immunofluorescence) after intrauterine LPS. Format: in vivo, mouse (Balb/C). The conditions noted are these: intrauterine, mixed with LPS 100 μg/kg on first day of estrus and alone the subsequent day, 3 estrous cycles; amitriptyline 28 μg/kg, TAK-242 36 μg/kg; vs LPS. How it is done:
Group 1 included twelve mice with 20 μl endotoxin-free saline introduced to the uterus on the first day of estrus and the subsequent day over 3 consecutive estrous cycles. Group 2 included twelve mice with LPS (100 μg/kg) instilled in the uterus on the first day of estrus and saline injected on the subsequent day over 3 consecutive estrous cycles. Group 3 included twelve mice with LPS (100 μg/kg) mixed with amitriptyline (20 μl of a 100 μM solution, equivalent to 28 μg/kg) instilled in the uterus on the first day of estrus, and amitriptyline alone instilled on the subsequent day over 3 consecutive estrous cycles. Group 4 included 14 mice with LPS (100 μg/kg) mixed with TAK-242 (20 μl of a 100 μM solution, equivalent to 36 μg/kg) instilled on the first day of estrus and TAK-242 alone instilled on the subsequent day over 3 consecutive estrous cycles.
The investigation involved the instillation of 20 ul of an endotoxin-free 0.9% saline solution into the uterus of all animals on the first day of estrus and the subsequent day during 3 consecutive estrous cycles. Additional agents added to the saline were included according to the groups outlined below. Where LPS is administered, this was done on only 1 day per estrous cycle.
Where amitriptyline or TAK-242 was administered, this is on both the first day of estrus and the subsequent day.
The spinal cord was assessed using immunohistochemistry techniques across levels T10, T11, T12, T13, L1, L2, L3, L4, L5, L6, S1 and S2 for Groups 1 and 2, where T represents the thoracic segment of the spinal cord, L represents the lumbar segment of the spinal cord and S represents the sacral segment of the spinal cord.
The spinal cord was assessed using immunohistochemistry techniques across levels T12, T13, L1, L2, L3, L4, L5, L6, S and S2 for Groups 3 and 4, where T represents the thoracic segment of the spinal cord, L represents the lumbar segment of the spinal cord and S represents the sacral segment of the spinal cord. […]

Take `CN(C)CCC=C1c2ccccc2CCc2ccccc21` [Amitriptyline]: the “effect on RIG-I−/MDA-5− control cell line” value with HEK293/Null is on record as “inhibitory effect”. The “microglial reactivity (Iba1 staining), impact of intrauterine LPS at multiple levels of the spinal cord” value in assay [1] is on record as “reduced microglial reactivity to basal levels”.

Source of the values: patent US11400059B2, “Treatment of pain and/or pain related symptoms associated with dysmenorrhea” (ALYRA BIOTECH PTY LTD, priority 2017, dated 2022).
